Measurements taken from patent publication US12343328B2, “Dialkyl tryptamines and their therapeutic uses” (CAAMTECH, INC., priority 2020, dated 2025).

Test system: murine Head Twitch Response
Assay: murine Head Twitch Response (HTR)
Conditions: Mus musculus, read-out: HTR ED50

SMILES | ED50 [µmol/kg]
CN(C)CCc1c[nH]c2cccc(O)c12 [Psilocin] | 0.54
CN(C)CCc1c[nH]c2cccc(OP(=O)(O)O)c12 [Psilocybin] | 1.02
